In US20160002250A1, “POLYMORPHS AND SALTS OF A COMPOUND” (FORUM Pharmaceuticals Inc., priority 2013, published 2016):
In brackets after ≈: the same amount, converted by molar mass. Like-named read-outs stand apart in the source and are kept apart here.

Assays:
[1] = pKa determination (Sirius GlpKa); format: physicochemical; details: 25° C.
Experimental: Data were collected on a Sirius G1pKa instrument with a D-PAS attachment. Measurements were made at 25° C. in aqueous solution by UV and in methanol water mixtures by potentiometry. The titration media was ionic-strength adjusted (ISA) with 0.15 M KCl (aq). The values found in the methanol water mixtures were corrected to 0% co-solvent via a Yasuda-Shedlovsky extrapolation. The data were refined using Refinement Pro software v2.2. Prediction of pKa values was made using ACD/Labs software.

[2] = Log P determination (potentiometric titration); format: physicochemical; details: octanol/ionic-strength adjusted (ISA) water
Text: Data were collected by potentiometric titration on a Sirius G1pKa instrument using three ratios of octanol:ionic-strength adjusted (ISA) water to generate Log P, Log Pion, and Log D values. The data were refined using Refinement Pro software. Prediction of Log P values was made using ACD/Labs software.

[3] = Thermodynamic aqueous solubility; details: for solubility at 24 h: 25 °C, thermodynamic from solid
Experimental: The suspension was equilibrated at 25° C. for 24 hours then the pH was measured and adjusted with either HCl or NaOH if it deviated by more than 0.3 units from the target pH. The suspension was then filtered through a glass fiber C filter. […] Different volumes of the standard, diluted and undiluted sample solutions were injected.
Analysis was performed on an Agilent HP1100 series system equipped with a diode array detector and using ChemStation software. The following buffers were prepared to carry out the solubility analyses:
pH 1.2—made up by adding 85.0 mL of 0.2M HCl(aq) to 50 mL of 0.2M KCl(aq) and making up to 200 mL. pH 4.5—made up by adding 2.99 g of NaC2H3O2.3H2O to 14.0 mL of 2N AcOH(aq) and making up to 1000 mL. pH 7.4—made up adding 39.1 mL of 0.2M NaOH(aq) to 50.0 mL of a 0.2M KH2PO4 and making up to 200 mL.

Q: With `CC1(C)OC(c2ccncc2)=C(c2ccc(OCc3cn4ncccc4n3)cc2)C1=O` [Free Base, 4-(4-(imidazo[1,2-b]pyridazin-2-ylmethoxy)phenyl)-2,2-dimethyl-5-(pyridin-4-yl)furan-3(2H)-one] as the molecule, how does the pKa ([1]; read-out: pKa (first of two basic centers)) read?
A: Its pKa is 3.7.

Q: What about the pKa ([1]; read-out: pKa (second of two basic centers)) of the same molecule?
A: The pKa was 2.9.

Q: And the logP [2]?
A: The logP was 3.

Q: What about the solubility at 24 h ([3]; aqueous buffer, pH 1.2, simulated gastric fluid) of the same molecule?
A: Its solubility at 24 h is 12200 µg/mL (≈ 29600 µM).

Q: And the solubility at 24 h ([3]; aqueous buffer, pH 4.5, aqueous buffer)?
A: The solubility at 24 h was 90 µg/mL (≈ 218 µM).

Q: And the solubility at 24 h ([3]; aqueous buffer, pH 7.4, aqueous buffer)?
A: Its solubility at 24 h is 50 µg/mL (≈ 121 µM).

Q: And the “pH of unfiltered saturated solution” value ([3]; pH point 1.2)?
A: Its value is 1.24.

Q: And the “pH of unfiltered saturated solution” value ([3]; pH point 4.5)?
A: The value was 4.71.

Q: What about the “pH of unfiltered saturated solution” value ([3]; pH point 7.4) of the same molecule?
A: The value was 7.44.

Q: What about the “pH of unfiltered saturated solution” value ([3]; pH point unadjusted aqueous) of the same molecule?
A: Its value is 6.19.

Q: What about the solubility at 24 h ([3]; water (unadjusted aqueous), water) of the same molecule?
A: Its solubility at 24 h is 60 µg/mL (≈ 145 µM).
